Common to all, as to format: functional, cell-based
What all share (conditions): human

In data set [1] the target is T1, Solute carrier organic anion transporter family member 1A1 (Rattus norvegicus, UniProt P46720).
T1 sequence (P46720 whole entry): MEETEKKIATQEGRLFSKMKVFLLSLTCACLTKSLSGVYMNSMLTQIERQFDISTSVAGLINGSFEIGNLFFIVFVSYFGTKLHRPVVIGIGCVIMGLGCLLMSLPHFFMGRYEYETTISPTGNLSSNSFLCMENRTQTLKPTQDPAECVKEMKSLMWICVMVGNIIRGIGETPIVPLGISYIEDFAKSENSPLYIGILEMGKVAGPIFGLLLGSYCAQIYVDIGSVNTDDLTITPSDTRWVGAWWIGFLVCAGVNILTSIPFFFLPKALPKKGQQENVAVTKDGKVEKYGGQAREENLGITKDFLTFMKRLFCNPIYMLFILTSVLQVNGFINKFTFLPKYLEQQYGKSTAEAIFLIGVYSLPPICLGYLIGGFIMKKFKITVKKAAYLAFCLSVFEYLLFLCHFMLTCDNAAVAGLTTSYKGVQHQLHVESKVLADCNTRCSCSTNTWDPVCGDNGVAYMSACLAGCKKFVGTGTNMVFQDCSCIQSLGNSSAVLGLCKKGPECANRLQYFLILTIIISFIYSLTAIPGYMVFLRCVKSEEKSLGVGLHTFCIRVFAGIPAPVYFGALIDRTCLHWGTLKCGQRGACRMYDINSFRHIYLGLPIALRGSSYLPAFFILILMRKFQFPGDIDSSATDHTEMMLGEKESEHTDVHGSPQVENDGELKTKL
Put plainly: TP_TRANSPORTER: inhibition of BSP uptake (BSP: 1 uM, Aldosterone: 100 uM) in Oatp1-expressing HeLa cells.

Data set [2] concerns the target T1, Solute carrier organic anion transporter family member 1A1. Put plainly: TP_TRANSPORTER: uptake in Oatp1-expressing HeLa cells.
Data set [3] has the same target. Description: TP_TRANSPORTER: inhibition of BSP uptake (BSP: 1 uM, Corticosterone: 100 uM) in Oatp1-expressing HeLa cells.
Data set [4] shares this target. Put plainly: TP_TRANSPORTER: inhibition of BSP uptake (BSP: 1 uM, Hydrocortisone: 100 uM) in Oatp1-expressing HeLa cells.
Data set [5] has the same target. Put plainly: TP_TRANSPORTER: inhibition of BSP uptake (BSP: 1 uM, Spironolactone: 100 uM) in Oatp1-expressing HeLa cells.

The structures appear in SMILES notation.

Consider `C[C@]12CCC(=O)C=C1CC[C@@H]1[C@@H]2[C@@H](O)C[C@]2(C=O)[C@@H](C(=O)CO)CC[C@@H]12` [ALDOSTERONE], for which the Activity result in data set [1] was “inhibitor [(at a rough estimate) 20 % of control]”. Take `Nc1ccc(C(=O)NCC(=O)O)cc1` [AMINOHIPPURIC ACID]: the Activity entry in data set [2] is “is not a substrate [-]”. Turning to `C[C@]12C[C@H](O)[C@H]3[C@@H](CCC4=CC(=O)CC[C@@]43C)[C@@H]1CC[C@@H]2C(=O)CO` [CORTICOSTERONE], the Activity result in data set [3] is “inhibitor [(at a rough estimate) 15 % of control]”. For `CCCCC[C@H](O)/C=C/[C@H]1[C@H](O)CC(=O)[C@@H]1C/C=C\CCCC(=O)O` [DINOPROSTONE], in data set [2], the Activity result was “is not a substrate [-]”. Regarding `C[C@]12CCC(=O)C=C1CC[C@@H]1[C@@H]2[C@@H](O)C[C@@]2(C)[C@H]1CC[C@]2(O)C(=O)CO` [HYDROCORTISONE], the Activity entry in data set [4] is “inhibitor [(at a rough estimate) 30 % of control]”. In the case of `CC(=O)S[C@@H]1CC2=CC(=O)CC[C@]2(C)[C@H]2CC[C@@]3(C)[C@@H](CC[C@@]34CCC(=O)O4)[C@H]12` [SPIRONOLACTONE], the Activity entry in data set [5] was “inhibitor [(at a rough estimate) 10 % of control]”.

(Values after ChEMBL document CHEMBL2074430, “Transient expression of oatp organic anion transporter in mammalian cells: identification of candidate substrates” (Am J Physiol, 1996).)
